According to publication PMC7724566, “Prospects for Clinical Development of Stat5 Inhibitor IST5-002: High Transcriptomic Specificity in Prostate Cancer and Low Toxicity In Vivo” (Cancers, 2020):

Experiments:
[1] = tested on: Stat5; assay: Stat5 phosphorylation in CWR22Rv1 cells (IP/immunoblot); format: cell-based, human; conditions: 4 days
Method: In order to evaluate whether the phosphate group of IST5 is critical for IST5 activity in cell-based assays, we compared the potency of IST5 (Figure 4A) to that of IST5-M (IST5 without the phosphate group) (Figure 4B) in inhibiting phosphorylation of Stat5 in PC and CML cells. CML (K562) cells and PC (CWR22Rv1) cells were cultured for 4 days with increasing concentrations of IST5 and IST5-M (Figure 4C,D). […] Collectively, these finding indicate that IST5 and IST5-M have similar efficacies in inhibiting phosphorylation of Stat5 in both CML and PC cells.
Figure 4 IST5 and the IST5-derivative lacking the phosphate group (IST5-M), both, inhibit Stat5 phosphorylation in CML and prostate cancer cell line with high efficacy. (A), chemical structure of IST5-002 (IST5). (B), chemical structure of IST5-M (IST5 without the phosphate group. (C), IST5 and IST5-M both inhibit Stat5 phosphorylation in CML cells (K562) with high efficacy. K562 cells were treated with IST5 and IST5-M for 4 days at the concentrations indicated. Whole cell lysates (WCL) were immunoblotted with anti-pYStat5 mAb, anti-Stat5 mAb and anti-actin mAb as loading control. (D), IST5 and IST5-M, both, decrease Stat5 phosphorylation in PC cells (CWR22Rv1). CWR22Rv1 cells were treated with increasing concentrations of IST5 and IST5-M for 4 days. Stat5 was immunoprecipitated (IP) followed by immunoblotting (WB) with anti-pYStat5 mAb and anti-Stat5 mAb. Whole cell lysates (WCL) were immunoblotted with anti-actin mAb as loading control.
Cell pellets were solubilized in the lysis buffer (10 mM Tris-HCl (pH 7.6), 5 mM EDTA, 50 mM sodium chloride, 30 mM sodium pyrophosphate, 50 mM sodium fluoride, 1 mM sodium orthovanadate, 1% Triton X-100, 1 mM phenylmethylsulfonyl fluoride, 5 µg/mL aprotinin, 1 µg/mL pepstatin A and 2 µg/mL leupeptin), and protein concentrations of clarified cell lysates were determined by a simplified Bradford method (Bio-Rad, Hercules, CA, USA). The whole cell lysates were immunoprecipitated with polyclonal antibodies (Table S1) followed by incubation with protein A-Sepharose beads (GE Healthcare, Chicago, IL, USA). The cell lysates and immunoprecipitated proteins were separated on 4–12% SDS-PAGE (Life Technologies, Brown Deer, WI, USA) and transferred electrophoretically to polyvinylidene fluoride membrane (Millipore). For immunoblotting, blocking buffer was tris-buffered saline and tween 20 (TBST, 0.15 M NaCl; 0.1% Tween 20; 50 mM Tris, pH 8.0) with 3% bovine serum albumin (BSA). The immunoreaction with the specific antibodies (Table S1) was detected by horseradish peroxidase-conjugated secondary antibodies followed by enhanced chemiluminescence (GE Healthcare).

[2] = tested on: athymic nude mice; assay: Chronic toxicity study (28 days), plasma biochemistry; format: in vivo; conditions: i.p. 28 days; for A-G Ratio / ALT / AST / Albumin / Alk.Ptase / Bile Acid / Chol / TBIL / Globulin / BUN: plasma; for Globulin: in g/dL (unit assumed); for BUN: in mg/dL (unit assumed)
Method: Forty athymic nude mice (8 weeks) (Crl:NU/NCr-Foxn1n) of either sex (20 males and 20 females) were randomized into four groups (n = 5/group) for either sex. The randomization of the mice was carried out based on their baseline body weight measured on day 0. IST5 or vehicle (0.3% hydroxypropyl cellulose, (Sigma-Aldrich, MO, St. Louis, MO, USA) were administered to the mice by i.p. injection for 28 days. The mice were observed daily for behavior, and body weights were measured on every 3rd day throughout the 28-day experimental protocol. The monitoring was started immediately after the compound administration and continued for 2 h for any acute signs of toxicity. In addition, the mice were monitored daily for any signs of toxicity using several clinical parameters. The clinical signs that were taken into consideration were as follows: 1) weight loss: rapid weight loss ([…]) or, weight loss of extended period time ([…]); 2) rapid growth of mass or masses; 3) paralysis or paresis (partial paralysis); 4) frank bleeding from any orifice; 5) lesions interfering with eating or drinking; 6) diarrhea (non-formed/soft stool or diarrhea liquid stool); 6) loss of body temperature; 7) appearance: rough coat, porphyrin staining (red or brown staining around eyes, nose, or along front paws, distended abdomen, alopecia; 8) eyes: ocular discharge, pale appearance, distinct icterus (jaundice or yellowing of the eyes); 9) respiration: coughing or wheezing, rales or crackling in the lungs, respiration increased or labored; 10) behavioral: hunched posture, huddling in a corner, lethargy, avoiding cagemate(s), head tilt, tremors (head, body, tail), spasticity (stiff muscles), ataxia (loss of voluntary muscle movement), seizures or convulsions, circling, persistent self-induced trauma, chattering or vocalizations, loss of startle response, loss of righting reflex. The clinical chemistry parameters measured were the same as those used for the acute toxicity study.

[3] = tested on: PC cells; design: method as in PMID 18316550, PMID 23942095, PMID 26362718, PMID 20966544, PMID 20233708; conditions: cited from earlier work

## O=P(O)(O)OCC1OC(n2cnc3c(NCc4ccccc4)ncnc32)C(O)C1O (stereo not drawn) [IST5]
[1]; 2 µM, CWR22Rv1 cells
  inhibition of Stat5 phosphorylation: 60–75%
[1]; read-out: IC50, inhibition of Stat5 phosphorylation, CWR22Rv1 PC cells
  IC50: ~1300 nM
[2]; 10 mg/kg
  BW: 22.5 ± 1.1 gm
  HCT: 0.43 ± 0.02 L/L
  A-G Ratio: 1.93 ± 0.08
  ALT: 50.4 ± 3.71 U/L
  AST: 329.9 ± 30.9 U/L
  Albumin: 2.69 ± 0.05 g/dL
  Alk.Ptase: 51.3 ± 0.72 U/L
  Bile Acid: 21.0 ± 12.7 µmol/dL
  Chol: 65.0 ± 2.09 mg/dL
  TBIL: 0.26 ± 0.02 mg/dL
  Globulin: 1.41 ± 0.04
  BUN: 20.5 ± 0.82
[2]; 30 mg/kg
  BW: 23.5 ± 0.6 gm
  HCT: 0.45 ± 0.01 L/L
  A-G Ratio: 1.9 ± 0.11
  ALT: 45.2 ± 3.76 U/L
  AST: 336 ± 57.1 U/L
  Albumin: 2.74 ± 0.07 g/dL
  Alk.Ptase: 53.0 ± 1.93 U/L
  Bile Acid: 2.39 ± 0.32 µmol/dL
  Chol: 70.3 ± 1.38 mg/dL
  TBIL: 0.21 ± 0.01 mg/dL
  Globulin: 1.47 ± 0.07
  BUN: 25 ± 1.32
[2]; 100 mg/kg
  BW: 23.5 ± 0.9 gm
  HCT: 0.43 ± 0.03 L/L
  ALT: 50.9 ± 3.83 U/L
  AST: 327 ± 4.03 U/L
  Albumin: 2.74 ± 0.04 g/dL
  Alk.Ptase: 53.3 ± 1.76 U/L
  Bile Acid: 2.98 ± 0.29 µmol/dL
  Chol: 75.9 ± 2.06 mg/dL
  BUN: 23.0 ± 0.07
[3]
  apoptotic death of PC cells: induce extensive apoptotic death
